Measurements: patent US12398141B2 (SHANGHAI SYNERGY PHARMACEUTICAL SCIENCES CO., LTD, priority 2019, dated 2025)

Assays:
[1] = biological target: JAK3 (Homo sapiens (Human), UniProt P52333); experiment: JAK3 LANCE Ultra kinase assay; format: biochemical; settings: 4 uM ATP
[2] = biological target: JAK2 (Homo sapiens (Human), UniProt O60674); experiment: JAK2 LANCE Ultra kinase assay; format: biochemical; settings: 12 uM ATP
[3] = tested on: TF-1 cell; experiment: TF-1 cell proliferation test; format: cell-based; settings: Homo sapiens, 72 h
Description: Inhibiting test of the compounds of the invention on proliferation of Blast T cell and TF-1 cell (American type culture collection) was carried out by the following method. The tested compounds […], and […] were dissolved in dimethyl sulfoxide from 0.0006 to 10 μM in quadruplicate dilutions. […] The luminescence value was read on Microplate Reader (Molecular Device). […] The IC50 values of the corresponding compounds were then obtained by fitting by using the XLFit fitting tool in excel.

[4] = biological target: JAK1 (Homo sapiens (Human), UniProt P23458); experiment: JAK1 LANCE Ultra kinase assay; format: biochemical; settings: for IC50: 38 uM ATP; for JAK2/JAK1: ratio of IC50 JAK2 to IC50 JAK1
JAK1, sequence (P23458 whole entry): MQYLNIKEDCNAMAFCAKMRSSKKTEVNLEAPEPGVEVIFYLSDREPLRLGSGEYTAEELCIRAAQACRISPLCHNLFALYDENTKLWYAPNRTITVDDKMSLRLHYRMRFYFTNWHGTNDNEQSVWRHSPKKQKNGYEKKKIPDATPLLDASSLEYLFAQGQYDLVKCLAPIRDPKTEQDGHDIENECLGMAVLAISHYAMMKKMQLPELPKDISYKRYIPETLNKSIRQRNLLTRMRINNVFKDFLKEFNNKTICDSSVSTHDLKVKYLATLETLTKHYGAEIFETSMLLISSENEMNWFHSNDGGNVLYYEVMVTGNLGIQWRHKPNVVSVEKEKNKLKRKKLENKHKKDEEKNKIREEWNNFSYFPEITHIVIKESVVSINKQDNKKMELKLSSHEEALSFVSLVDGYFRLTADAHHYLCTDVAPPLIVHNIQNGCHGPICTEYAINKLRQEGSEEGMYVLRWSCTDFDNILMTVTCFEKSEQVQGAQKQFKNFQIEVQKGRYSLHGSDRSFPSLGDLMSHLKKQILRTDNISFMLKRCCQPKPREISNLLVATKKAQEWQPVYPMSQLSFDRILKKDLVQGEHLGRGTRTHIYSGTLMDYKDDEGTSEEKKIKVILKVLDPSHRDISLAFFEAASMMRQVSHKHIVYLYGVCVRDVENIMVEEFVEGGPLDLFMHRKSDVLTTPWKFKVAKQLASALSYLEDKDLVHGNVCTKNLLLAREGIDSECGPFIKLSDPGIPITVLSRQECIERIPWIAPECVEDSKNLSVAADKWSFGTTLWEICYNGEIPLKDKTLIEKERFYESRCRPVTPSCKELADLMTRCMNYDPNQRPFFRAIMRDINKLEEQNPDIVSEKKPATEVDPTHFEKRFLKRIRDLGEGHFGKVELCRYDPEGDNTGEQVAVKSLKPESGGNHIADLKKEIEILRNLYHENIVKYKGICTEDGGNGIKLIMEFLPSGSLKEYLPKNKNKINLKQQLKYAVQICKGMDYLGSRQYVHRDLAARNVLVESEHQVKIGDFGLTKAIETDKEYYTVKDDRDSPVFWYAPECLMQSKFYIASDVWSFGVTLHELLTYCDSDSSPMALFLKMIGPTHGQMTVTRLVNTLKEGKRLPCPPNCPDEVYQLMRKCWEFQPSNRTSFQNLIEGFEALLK
How it was run: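 JAK1 preincubated with compound 10 min at room temperature, then ULight-JAK-1 peptide/ATP added for 90 min at room temperature; stopped with EDTA, Eu-W1024 anti-phosphotyrosine TR-FRET read after 60 min. Inhibition normalised to DMSO and blank wells; IC50 from curve fit.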

[5] = tested on: Blast T cell; experiment: Cell proliferation test of IL-2 stimulated Blast T cell; format: cell-based; settings: Homo sapiens; IL-2 stimulated Blast T cell proliferation, 72 hours
Description: Inhibiting test of the compounds of the invention on proliferation of Blast T cell and TF-1 cell (American type culture collection) was carried out by the following method. The tested compounds […], and […] were dissolved in dimethyl sulfoxide from 0.0006 to 10 μM in quadruplicate dilutions. […] 10 μg/ml […] was added to stimulate and obtain cells with a density of 2×10^6/mL, which were incubated for 3 days. The cells were washed with phosphate buffer for three times and IL-2 (100 u/ml) was added to stimulate for 1 week. Cells were suspended using the culture medium and seeded at 5×10^4 cell/well density into 96-well plates, and incubated for 1 h with the prepared test compound or DMSO control at various concentrations from 0.0006 to 10 μM diluted by 4-fold volume. After incubation with 20 u/ml of IL-2 (50 μl/well without reference well) for 72 hours, Celltiter Glo® reagent (Promega, G7571) was added and mixed for 5 minutes, then incubated for 30 minutes at room temperature. The luminescence value was read on SpectraMax L (Molecular Device). […] The IC50 values of the corresponding compounds were then obtained by fitting by using the XLFit fitting tool in excel.

JAK3, sequence (P52333 whole entry): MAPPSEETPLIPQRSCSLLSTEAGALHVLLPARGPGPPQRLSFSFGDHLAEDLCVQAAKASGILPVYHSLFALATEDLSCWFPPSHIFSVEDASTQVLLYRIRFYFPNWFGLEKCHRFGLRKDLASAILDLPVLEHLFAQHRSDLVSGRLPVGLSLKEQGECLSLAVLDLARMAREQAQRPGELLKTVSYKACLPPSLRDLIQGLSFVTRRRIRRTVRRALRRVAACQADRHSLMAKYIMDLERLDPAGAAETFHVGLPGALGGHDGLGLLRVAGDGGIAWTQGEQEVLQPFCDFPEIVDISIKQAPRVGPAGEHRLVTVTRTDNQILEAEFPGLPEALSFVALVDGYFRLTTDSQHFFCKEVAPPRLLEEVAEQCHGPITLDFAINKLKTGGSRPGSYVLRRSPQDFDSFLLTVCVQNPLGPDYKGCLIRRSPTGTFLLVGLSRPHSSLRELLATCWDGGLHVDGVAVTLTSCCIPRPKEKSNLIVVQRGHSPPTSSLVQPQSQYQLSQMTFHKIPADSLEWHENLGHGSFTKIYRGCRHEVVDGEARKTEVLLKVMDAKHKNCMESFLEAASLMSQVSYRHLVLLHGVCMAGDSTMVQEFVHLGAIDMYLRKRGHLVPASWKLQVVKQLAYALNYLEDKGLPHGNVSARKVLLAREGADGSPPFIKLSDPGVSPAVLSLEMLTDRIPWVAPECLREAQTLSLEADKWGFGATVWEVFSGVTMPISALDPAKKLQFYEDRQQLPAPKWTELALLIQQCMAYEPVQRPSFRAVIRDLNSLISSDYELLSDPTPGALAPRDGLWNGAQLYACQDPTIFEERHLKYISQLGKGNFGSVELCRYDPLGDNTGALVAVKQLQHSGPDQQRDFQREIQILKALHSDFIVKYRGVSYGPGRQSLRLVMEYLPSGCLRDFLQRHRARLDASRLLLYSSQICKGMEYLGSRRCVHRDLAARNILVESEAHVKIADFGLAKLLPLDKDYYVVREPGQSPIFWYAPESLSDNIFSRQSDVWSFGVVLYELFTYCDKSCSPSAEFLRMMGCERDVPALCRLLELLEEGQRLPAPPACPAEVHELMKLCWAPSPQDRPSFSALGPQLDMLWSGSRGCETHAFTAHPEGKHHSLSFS
JAK2, sequence (O60674 whole entry): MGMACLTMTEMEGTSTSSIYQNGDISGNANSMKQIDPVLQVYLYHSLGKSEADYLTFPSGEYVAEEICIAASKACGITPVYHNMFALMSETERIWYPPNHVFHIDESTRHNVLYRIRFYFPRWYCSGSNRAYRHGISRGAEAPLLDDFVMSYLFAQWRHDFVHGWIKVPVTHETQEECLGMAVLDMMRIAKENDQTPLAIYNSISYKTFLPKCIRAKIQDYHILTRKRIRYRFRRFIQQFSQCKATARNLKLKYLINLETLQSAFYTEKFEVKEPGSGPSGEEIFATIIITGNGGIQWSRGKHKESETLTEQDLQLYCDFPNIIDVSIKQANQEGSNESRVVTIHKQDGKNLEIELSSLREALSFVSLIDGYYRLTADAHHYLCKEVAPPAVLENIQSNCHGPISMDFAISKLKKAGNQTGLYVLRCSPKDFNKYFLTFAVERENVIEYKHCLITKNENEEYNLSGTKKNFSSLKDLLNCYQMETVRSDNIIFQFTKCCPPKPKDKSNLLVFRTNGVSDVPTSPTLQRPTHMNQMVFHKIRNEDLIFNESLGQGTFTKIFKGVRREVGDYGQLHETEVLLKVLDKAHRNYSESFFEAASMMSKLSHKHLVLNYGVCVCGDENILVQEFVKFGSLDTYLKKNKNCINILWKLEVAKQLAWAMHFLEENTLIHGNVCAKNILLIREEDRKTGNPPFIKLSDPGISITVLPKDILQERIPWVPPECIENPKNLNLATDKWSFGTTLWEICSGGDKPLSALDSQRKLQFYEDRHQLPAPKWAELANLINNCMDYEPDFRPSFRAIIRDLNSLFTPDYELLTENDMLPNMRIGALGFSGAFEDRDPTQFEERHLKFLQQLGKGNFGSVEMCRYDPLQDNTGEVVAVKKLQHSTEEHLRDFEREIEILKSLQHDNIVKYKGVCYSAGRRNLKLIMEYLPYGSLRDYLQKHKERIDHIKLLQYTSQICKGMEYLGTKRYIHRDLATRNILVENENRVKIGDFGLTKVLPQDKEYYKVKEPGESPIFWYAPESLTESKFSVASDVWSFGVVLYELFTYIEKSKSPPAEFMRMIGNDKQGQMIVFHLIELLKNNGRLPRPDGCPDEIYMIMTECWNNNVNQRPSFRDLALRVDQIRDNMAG

| SMILES | IC50 [1] | IC50 [2] | IC50 [3] | IC50 [4] | JAK2/JAK1 [4] | IC50 [5] |
| --- | --- | --- | --- | --- | --- | --- |
| COCCOC1CCCN(S(=O)(=O)C[C@H]2CC[C@@H](N(C)c3c(C#N)cnc4[nH]ccc34)C2)C1 (stereo partly drawn) [Compound H70] | 47 nM | 13.9 nM | 1.53 µM | 6.7 nM | 2.07 | 0.048 µM |
| CN(c1c(C#N)cnc2[nH]ccc12)[C@H]1CC[C@H](CS(=O)(=O)N2CCC(C)(O)C2)CC1 (stereo partly drawn) [Compound H62] | 40 nM | 16 nM | 1.32 µM | 5.8 nM | 2.76 | 0.029 µM |
| COc1noc(NC(=O)N2C[C@H]3C[C@H](N(C)c4c(C#N)cnc5[nH]ccc45)C[C@H]3C2)n1 [Compound H43, (3aR,5s,6aS)-5-((5-cyano-1H-pyrrolo[2,3-b]pyridin-4-yl)(methyl)amino)-N-(3-methoxy-1,2,4-oxadiazole-5-yl)hexahydrocyclopentadiene[c]pyrrole-2(1H)-carboxamide] | 125 nM | 20 nM | 1.44 µM | 2.4 nM | 8.33 | 0.043 µM |
| CN(c1c(C#N)cnc2[nH]ccc12)[C@H]1C[C@@H](NS(=O)(=O)c2cccc(C(F)(F)F)c2)C1 [Compound H09, 4-{[3-(3-(trifluoromethyl)benzenesulfonamido)-cyclobutyl-1-yl]-methyl-amino}-1H-pyrrolo[2,3-b]pyridin-5-carbonitrile] | 156 nM | 26.5 nM | 1.56 µM | 3.86 nM | – | 0.036 µM |
| CCc1nsc(NC(=O)N2C[C@H]3C[C@H](N(C)c4c(C#N)cnc5[nH]ccc45)C[C@H]3C2)n1 [Compound H08, (3aR,5s,6aS)-4-({2-[(3-ethyl-1,2,4-thiadiazole-5-yl)carbamoyl]-hexahydrocyclopenta[c]pyrrole-5-yl}-methyl-amino)-1H-pyrrolo[2,3-b]pyridin-5-carbonitrile] | 63 nM | 3 nM | 1.3 µM | 0.39 nM | 7.69 | 0.026 µM |
| COc1nsc(NC(=O)N2C[C@H]3C[C@H](Nc4c(C(F)(F)F)cnc5[nH]ccc45)C[C@H]3C2)n1 [Compound H50, (3aR,5s,6aS)-5-((5-trifluoromethyl-1H-pyrrolo[2,3-b]pyridin-4-yl)amino)-N-(3-methoxy-1,2,4-thiadiazole-5-yl)hexahydrocyclopentadiene[c]pyrrole-2(1H)-carboxamide] | 137 nM | 33 nM | 0.85 µM | 4.65 nM | – | 0.034 µM |
| CN(c1c(C#N)cnc2[nH]ccc12)[C@H]1C[C@@H](NS(=O)(=O)c2cccc3nonc23)C1 [Compound H18, (cis)-4-{[3-(benzo[c][1,2,5]oxadiazole-4-sulfonamido)-cyclobutyl-1-yl]-methyl-amino}-1H-pyrrolo[2,3-b]pyridin-5-carbonitrile] | 40 nM | 5.7 nM | 1.56 µM | 0.65 nM | – | 0.04 µM |
| CC[C@@H]1CN(C(=O)NCC(F)(F)F)C[C@@H]1Nc1c(C(F)(F)F)cnc2[nH]ccc12 (relative stereo) [Compound H92, (cis)-3-ethyl-N-(2,2,2-trifluoroethyl)-4-((5-(trifluoromethyl)-1H-pyrrolo[2,3-b]pyridin-4-yl)amino)pyrrolidin-1-carboxamide] | 258 nM | 14.9 nM | 0.91 µM | 8.21 nM | 1.81 | 0.027 µM |
| C[C@@H]1CN(C(=O)NCC(F)(F)F)C[C@@H]1Nc1c(C#N)cnc2[nH]ccc12 [Compound H40] | 144 nM | 15.6 nM | 1.24 µM | 2.6 nM | 6.00 | 0.036 µM |
| CC[C@@H]1CN(C(=O)NC(C)C(C)C)C[C@@H]1Nc1c(C#N)cnc2[nH]ccc12 (relative stereo) [Compound H85, (cis)-3-((5-cyano-1H-pyrrolo[2,3-b]pyridin-4-yl)amino)-4-ethyl-N-(3-methylbutane-2-yl) pyrrolidin-1-carboxamide] | 48 nM | 15.7 nM | 1.47 µM | 5.47 nM | 2.86 | 0.032 µM |
| CC[C@@H]1CN(C(=O)CC(F)(F)F)C[C@@H]1N(C)c1c(C#N)cnc2[nH]ccc12 (relative stereo) [Compound H03, (cis)-4-{[4-ethyl-1-(3,3,3-trifluoropropionyl)pyrrolidin-3-yl]-methyl-amino}-1H-pyrrolo[2,3-b]pyridin-5-carbonitrile] | 133 nM | 22 nM | 0.76 µM | 2.86 nM | 7.69 | 0.027 µM |
